Entries after “also recorded” stand apart in the source; their conditions may differ. Read-outs that look alike come from different tables or passages of the source.
How the values were obtained:
[1] = tested on: amyloid aggregates (gO/CF and RF); conditions: cited from earlier work; for Response to gO/CF vs. RF aggregates (selectivity): literature / background statement
[2] = molecular target: T1, hen egg-white lysozyme (hewL) amyloid aggregates: gO/CFs vs. RFs (Gallus gallus, UniProt P00698); assay: Kinetic dye screening assay: dye fluorescence response during sigmoidal vs. biphasic amyloid assembly, ThT as reference; format: binding; conditions: for Fluorescence response to initial gO/CF (oligomer) phase of biphasic growth / Fluorescence response to RF nucleation and growth: hewL, pH 2, 52° C.; for Fluorescence response to initial gO/CF (oligomer) phase of biphasic growth: above COC (biphasic regime); for Fluorescence response to RF nucleation and growth: second phase of biphasic growth or sigmoidal growth; for Oligomer (gO/CF) selectivity over fibrils: hewL amyloid assembly, sigmoidal vs. biphasic kinetics
T1 construct: hen egg-white lysozyme (hewL); from tissue
T1 sequence (P00698 19-147): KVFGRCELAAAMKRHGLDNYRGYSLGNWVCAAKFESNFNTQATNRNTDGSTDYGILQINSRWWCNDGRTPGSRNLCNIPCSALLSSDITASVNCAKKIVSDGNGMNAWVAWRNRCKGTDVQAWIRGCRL
Description: A kinetic assay that clearly delineates growth conditions dominated by gO/CF or RF formation as simple function of protein concentration was developed. This kinetic assay was used in conjunction with high-resolution (AFM or TEM) imaging of aggregate morphologies to identify dyes that display well-defined selectivity of gO/CFs over RFs (FIGS. 1A-1E).
The basis of the kinetic assay is the existence of a “critical oligomer concentration” or COC, distinct from and higher than the protein concentration required for fibril growth [Tatiana Miti, et al. Biomacromolecules (2015) 16:326-335]. Using both hen-egg white lysozyme and a dimeric Aβ construct, it was shown that crossing this COC causes a sharp transition in ThT kinetics from the ubiquitous “sigmoidal” growth kinetics of nucleated polymerization to lag-free bimodal kinetics. The initial phase of bimodal growth is dominated by gO/CF formation while the secondary upswing indicates RF nucleation and growth [Filip Hasecke, et al. Chem. Sci. (2018) 9: 5937-5948]. When below this COC HEWL grows RFS aggregates with a distinct lag phase before the start of growth. Monitoring dye responses both below and above the COC allows rapid determination whether a given fluorescent dye responds only to the initial gO/CF or subsequent RF phase of amyloid growth.
Kinetic transition is an indicator of oligomer formation (Hasecke F. et al., Chem. Sci., 2018 9:5937-5948). The onset of gO/CF formation is delineated by a threshold protein concentration referred to herein as the “critical oligomer concentration” or COC. […] No populations of gO/CFs are observed. In contrast, gO/CF formation above the COC has no lag periods and results in biphasic kinetics (saturating gO/CF kinetics is superimposed to sigmodal RF kinetics). AFM confirms that the initial phase represents gO/CF formation while the second phase indicates RF nucleation and growth. Using this transition from sigmoidal to biphasic kinetics provides an efficient assay for screening dyes for their response to these distinct aggregate species.
Instead of requiring isolation and stabilization of amyloid oligomers, the dye screening protocol proposed here takes the identification of two distinct amyloid assembly regimes with distinctly different assembly kinetics (see FIG. 6 and Hasecke, F., et al. Chemical Science, 2018. 9:5937-5948). […] Following the initial lag phase, this regime yields pure populations of “traditional” rigid fibrils (RFs). It lacks any detectable populations of metastable globular oligomers (gOs) or curvilinear fibrils (CFs) during any stage of fibril assembly. Upon crossing a threshold protein (or salt) concentration a second, oligomer-dominated regime emerges. This regime is characterized by lag-free formation of readily detectable populations of gOs and CFs during its initial phase, with RFs emerging in a second growth phase. The transition to this regime is characterized by a concurrent switch in ThT-monitored assembly kinetics from sigmoidal to biphasic kinetics (Hasecke, F., et al. Chemical Science, 2018. 9:5937-5948; Miti, T., et al. Biomacromolecules, 2015. 16:326-335; Foley, J., et al. J Chem Phys., 2013. 139:121901; Hill, S. E., et al. PLoS ONE, 2011. 6:e18171). Monitoring fluorescence responses of dyes to amyloid assembly under either sigmoidal or biphasic growth conditions provides a direct and straight-forward readout for their selectivity to oligomer over fibril formation.
Using the above transition in the model amyloid hewL a small subset of about one dozen dyes were screened for oligomer-selective responses. Oligomer-free sigmoidal kinetics provided the read-out for dye responses to pure fibril formation—relative to the ThT response recorded under the same conditions. Responsiveness of dyes to gO/CF formation was evaluated during the initial gO/CF phase of biphasic kinetics, as long as it was well separated from the second RF-related upswing. […]

[3] = molecular target: T2, hen egg-white lysozyme (hewL) amyloid aggregates (Gallus gallus, UniProt P00698); assay: AFM imaging of hewL aggregate morphologies during biphasic growth in the presence of dye; conditions: 5 mg/ml hewL, pH 2, 52° C., CV 5 μM, listed as CV
T2 construct: hen egg-white lysozyme (hewL); from tissue
T2 sequence (P00698 19-147): as above
Description: FIG. 8B contains AFM images from aliquots taken during biphasic amyloid growth in FIG. 8A from the CV wells at the indicated time points. […] This kinetic assay was used in conjunction with high-resolution (AFM or TEM) imaging of aggregate morphologies to identify dyes that display well-defined selectivity of gO/CFs over RFs (FIGS. 1A-1E). Using the above transition in the model amyloid hewL a small subset of about one dozen dyes were screened for oligomer-selective responses. Oligomer-free sigmoidal kinetics provided the read-out for dye responses to pure fibril formation—relative to the ThT response recorded under the same conditions. Responsiveness of dyes to gO/CF formation was evaluated during the initial gO/CF phase of biphasic kinetics, as long as it was well separated from the second RF-related upswing. Even this very limited and fairly arbitrary set of dyes yielded three different dyes with a modest level of oligomer-specific responses (FIG. 7). While encouraging, the level of oligomer selectivity, the overall fluorescence change upon either fibril or oligomer formation, or the rapid bleaching of the dyes under these growth conditions didn't warrant further investigation. […] It confirms that the progression of hewL aggregates during biphasic growth is not altered by the presence of CV.

Cc1ccc2c(c1)sc(-c1ccc(N(C)C)cc1)[n+]2C.[Cl-] [ThT, reference compound]
Response to gO/CF vs. RF aggregates (selectivity) [1]: responds to both gO/CF and RF aggregates, albeit with different sensitivities; also recorded: highly skewed towards late-stage amyloid fibrils
Response to gO/CF vs. RF aggregates (selectivity) ([1]; listed as Thioflavin T): considerably less enhanced by gO/CF vs. RF formation
Response to gO/CF vs. RF aggregates (selectivity) ([1]; listed as thioflavin T): preferentially respond to late stage RFs instead of gOs and CFs
Fluorescence response to initial gO/CF (oligomer) phase of biphasic growth [2]: robust response to the initial gO/CF dominated phase; also recorded: expected biphasic behavior as the sample grows gO/CFs up to a first plateau; also recorded: weak biphasic response; also recorded: identical response to amyloid growth prior to the onset of RF formation
Fluorescence response to RF nucleation and growth [2]: readily picked up; also recorded: second upswing and plateau indicating the onset of RF nucleation and growth; also recorded: continues to rise following RF nucleation

CN(C)c1ccc2cc3ccc(N(C)C)cc3nc2c1 [acridine orange, reference compound]
Oligomer (gO/CF) selectivity over fibrils [2]: (weak) select responses to oligomer-dominated phase

O=C(O)c1cc(/C=C/c2ccc(/C=C/c3ccc(O)c(C(=O)O)c3)cc2)ccc1O [X-34, reference compound]
Oligomer (gO/CF) selectivity over fibrils [2]: (weak) select responses to oligomer-dominated phase

methyl violet
Oligomer (gO/CF) selectivity over fibrils [2]: noticeable oligomer selectivity

Nc1c(/N=N/c2ccc(-c3ccc(/N=N/c4cc(S(=O)(=O)O)c5ccccc5c4N)cc3)cc2)cc(S(=O)(=O)O)c2ccccc12 [congo red]
Response to gO/CF vs. RF aggregates (selectivity) [1]: preferentially respond to late stage RFs instead of gOs and CFs

CC1=C/C(=C(\c2ccc(N)c(S(=O)(=O)[O-])c2)c2ccc(N)c(S(=O)(=O)O)c2)C=C(S(=O)(=O)[O-])C1=N.[Na+].[Na+] [acid fuchsin, reference compound]
Oligomer (gO/CF) selectivity over fibrils [2]: (weak) select responses to oligomer-dominated phase

N#CC(C#N)=Cc1cc2c3c(c1)CCCN3CCC2 [DCVJ, 9-(Dicyanovinyl) Julolidine]
Response to gO/CF vs. RF aggregates (selectivity) [1]: some oligomer selectivity

CN(C)c1ccc(C(=C2C=CC(=[N+](C)C)C=C2)c2ccc(N(C)C)cc2)cc1 [crystal violet, tris(4-(dimethylamino)phenyl)methylium chloride]
Amyloid staining ([1]; literature (Cooper 1969)): weak metachromatic amyloid stain
Oligomer (gO/CF) selectivity over fibrils [2]: oligomer-selective dye and noticeable oligomer selectivity and OSD and preferentially enhanced upon binding to gO/CFs
Fluorescence response to initial gO/CF (oligomer) phase of biphasic growth [2]: responds nearly exclusively to the initial (oligomer) phase; also recorded: identical response to amyloid growth prior to the onset of RF formation
Fluorescence response to initial gO/CF (oligomer) phase of biphasic growth ([2]; listed as CV): robust response to the initial gO/CF dominated phase
Fluorescence response to initial gO/CF (oligomer) phase of biphasic growth ([2]; listed as Crystal violet): closely match the kinetics of the initial gO/CF phase in ThT kinetics
Fluorescence response to RF nucleation and growth [2]: weak fibril response; also recorded: little or no response to the onset of RF formation; also recorded: level off
Fluorescence response to RF nucleation and growth ([2]; listed as CV): lacks the upswing to subsequent RF nucleation and growth; also recorded: weak response to RF formation
Fluorescence response to RF nucleation and growth ([2]; listed as Crystal violet): very weak responses upon the onset of RF formation
Temporal correlation of dye signal with ThT signal ([2]; sigmoidal and initial phase of biphasic growth of hewL): one-to-one temporal correlation
Effect of dye on aggregate types / progression of aggregates (AFM) [3]: not altered; also recorded: did not alter the types of aggregates observed

N#CC(C#N)=Cc1ccc(-c2ccc(-c3ccc(O)cc3)s2)s1 [NIAD-4]
Response to gO/CF vs. RF aggregates (selectivity) [1]: preferentially respond to late stage RFs instead of gOs and CFs
